Laboratory results as given in US20240382529A1, “COMPOSITIONS AND METHODS FOR TREATING SPINAL CORD INJURIES” (ASTERIAS BIOTHERAPEUTICS, INC., priority 2022, published 2024).

Columns and labels:
[1] = test system: subacute cervical spinal cord injuries (SCI); assay: Phase 1/2a cervical SCI trial: safety, adverse events; type: in vivo, human
Description: Study Design. The trial design was an open-label, staggered dose escalation, cross-sequential, multicenter study. Three sequential, escalating doses of AST-OPC1 were administered at a single time point between 21 and 42 days post-injury to subjects with subacute cervical spinal cord injuries (SCI). Subjects received AST-OPC1 via direct intra-spinal injection using a Syringe Positioning Device (SPD). To prevent rejection of engraftment, low dose tacrolimus was initiated 6 to 12 hours after and intra-spinal injection, and continued for 46 days, tapered from Day 46 to Day 60, and was discontinued at Day 60. Subjects were followed for 1 year following administration of AST-OPC1 under this protocol. Male or female subjects from 18 to 69 years of age at time of consent with sensorimotor complete, traumatic SCI (American Spinal Injury Association Impairment Scale A) or sensorimotor incomplete, traumatic SCI (American Spinal Injury Association Impairment Scale B). […] There was a single spinal cord lesion on a post-stabilization magnetic resonance imaging (MRI) scan, with sufficient visualization of the spinal cord injury epicenter and lesion margins to enable post-injection safety monitoring. Subjects were able to participate in an elective surgical procedure to inject AST-OPC1 21 to 42 days following SCI. Subjects received a single dose of either 2×10^6, 1×10^7, or 2×10^7 AST-OPC1 viable cells by injection, administered 21 to 42 days following SCI. The product was delivered intraoperatively into the spinal cord using the Syringe Positioning Device. The AST-OPC1 batch numbers used in this study were M08D1A, M22D1A and M25D1A. Single administration of AST-OPC1 was provided with 1 year of follow-up. Schematics of the planned study timeline, and subject screening and treatment, are provided in FIG. 6 and FIG. 7, respectively. A schematic diagram of the final open-label, staggered dose-escalation, multicenter Phase 1/2a clinical trial is shown in FIG. 8. An overview of study visits for the one-year protocol is presented in the study schema in FIG. 9.
A neurological examination was completed using the standardized International Standards for Neurological Classification of Spinal Cord Injury (ISNCSCI) examination for motor and sensory testing and for designation of the American Spinal Injury Association impairment scale. The ISNCSCI is used for efficacy with respect to improved motor function in the extremities, improved sensory function, and/or a descending neurological level. Safety assessments included physical examination, vital signs, ISNCSCI neurological examination, pain questionnaire (International Spinal Cord Injury Pain Basic Data Set, ISCIPBDS), electrocardiogram (ECG), Magnetic Resonance Imaging (MRI), laboratory tests, concomitant medications, and adverse events (AEs). Results for the ISNCSCI were listed for each subject by scheduled visit and analyzed by change in motor level and motor scores as well as other exploratory assessments of arm/hand function, self-care ability and overall volitional performance. Adverse events were tabulated by system organ class and by preferred term within system organ class according to the Medical Dictionary for Regulatory Activities (MedDRAR) Version 18.0. S[…] of the safety data was performed using descriptive statistical methods including AEs incidence, severity and relatedness to AST-OPC1, to the injection procedure for product administration, and concomitant immunosuppression with tacrolimus. The number of laboratory assessments (hematology, clinical chemistry) that were below, within, or above the normal laboratory reference range were summarized for each analyte at scheduled study visits. Vital signs were summarized by calculating the mean, standard deviation, median, and range of values at each of the protocol-specified time points.
Study Endpoints. […]

[2] = test system: T3 to T11 neurologically complete spinal cord injuries (SCI); assay: Phase 1 thoracic SCI trial of LCTOPC1 (NCT01217008): safety, adverse events; type: in vivo, human; details: 60 days immunosuppression
Description: Study design. The trial design was an open-label, multicenter study. A single dose of 2×10^6 LCTOPC1 was injected within 7 to 14 days following SCI. Subjects who received LCTOPC1 also received tacrolimus to prevent rejection. Subjects will be followed by protocol for 15 years following administration of LCTOPC1. This study was a Phase 1, multi-center, non-randomized, a single group assignment interventional clinical trial. The Participants were enrolled from one of seven centers in the United Sates. The study was registered (NCT01217008) and the primary endpoint was safety, as measured by the frequency and severity of adverse events related to LCTOPC1, the injection procedure used to administer LCTOPC1, and/or the concomitant immunosuppression administered. The secondary endpoint was neurological function as measured by sensory scores and lower extremity motor scores on […] examinations. […] The primary endpoint was safety measured by the frequency and severity of adverse events related to the OPC1 injection, the injection procedure, and/or the concomitant immunosuppression administered. The secondary endpoint was neurological function as measured by sensory scores and lower extremity motor scores as measured by the […] examinations. […] The severity of AEs and the characterization of Serious Adverse Events (SAEs) were evaluated using standard FDA criteria. […]

[3] = test system: dorsal funicular lesion (DFL) SCI model; details: cited from earlier work

Row | Molecule | AEs related to Tacrolimus that were hypomagnesemia ([1]; both, human, in vivo, 60 days) | Decreased Appetite: Severity ([1]; both, human, in vivo, 60 days) | Hypomagnesemia: Days from Injection ([1]; both, human, in vivo, 60 days) [days] | Hypomagnesemia: Severity ([1]; both, human, in vivo, 60 days) | Nausea: Days from Injection ([1]; both, human, in vivo, 60 days) [days] | Nausea: Severity ([1]; both, human, in vivo, 60 days) | Bacterial infection: Days from Injection ([1]; causality Tacrolimus) [days] | Bacterial infection: Outcome ([1]; causality Tacrolimus) | Bacterial infection: Severity ([1]; causality Tacrolimus) | Decreased Appetite: Outcome ([1]; in vivo) | Hypomagnesemia: Outcome ([1]; in vivo) | Nausea: Outcome ([1]; in vivo) | tolerability of immunosuppression ([1]; in vivo) | Grade 1 AEs possibly related specifically to tacrolimus [2] | Grade 2 AEs possibly related specifically to tacrolimus [2] | effect on scarring and wound cavitation ([3]; DFL SCI model, adult rats) | axonal regrowth ([3]; Decorin-treated vs PBS-treated DFL) | inflammation, glial scar formation, CSPG expression ([3]; after acute spinal cord injury)
1 | C=CC[C@@H]1/C=C(\C)C[C@H](C)C[C@H](OC)[C@H]2O[C@@](O)(C(=O)C(=O)N3CCCC[C@H]3C(=O)O[C@H](/C(C)=C/[C@@H]3CC[C@@H](O)[C@H](OC)C3)[C@H](C)[C@@H](O)CC1=O)[C@H](C)C[C@@H]2OC [Tacrolimus, tacrolimus] | 8/11 | Grade 2 | 5 to 43 | 1-2 Grade | 7 | Grade 2 | 30 | Resolved | Grade 3 | Resolved | Resolved | Resolved | well-tolerated | Seven Grade 1 AEs | nine Grade 2 AEs |  |  | 
2 | Decorin: extracellular small leucine-rich proteoglycan, TGF-β1/2 antagonist; recombinant form used in rat SCI models (protein, UniProt P07585 31-359, looked up) Decorin: DEASGIGPEVPDDRDFEPSLGPVCPFRCQCHLRVVQCSDLGLDKVPKDLPPDTTLLDLQNNKITEIKDGDFKNLKNLHALILVNNKISKVSPGAFTPLVKLERLYLSKNQLKELPEKMPKTLQELRAHENEITKVRKVTFNGLNQMIVIELGTNPLKSSGIENGAFQGMKKLSYIRIADTNITSIPQGLPPSLTELHLDGNKISRVDAASLKGLNNLAKLGLSFNSISAVDNGSLANTPHLRELHLDNNKLTRVPGGLAEHKYIQVVYLHNNNISVVGSSDFCPPGHNTKKASYSGVSLFSNPVQYWEIQPSTFRCVYVRSAIQLGNYK |  |  |  |  |  |  |  |  |  |  |  |  |  |  |  | suppressed acute scarring (fibrogenesis) and wound cavitation | promoted axonal regrowth in both acute and chronic experiments | inhibit inflammation, glial scar formation and CSPG expression
